Measurements: US5675007A (priority 1994, dated 1997)

Legend:
[1] = Functional studies in vivo: body tremor; parameters: species or system mouse (male CD1); settings: mouse, read-out: Tremor ED50 (dose inducing 50% of the maximum score)
Protocol: (§1) Male mice (CD1, Charles River UK, 25-35 g) were used in the in vivo experiments. Animals were housed in groups of 10 and allowed food and water ad libitum. Two hours prior to the experiment the animals were rehoused in groups of 5 and allowed to acclimatize to their new environment. Each group was assigned one dose of test compound.
(§2) Test compounds or vehicle were administered by either the subcutaneous (sc) or oral (po) routes. Animals were subjectively assessed for signs of salivation and body tremor 15, 30, 45, 60, 90, 120, 150, 180, 240 and 300 minutes post dose, using a scoring system: 0=absent; 1=mild; 2=moderate; 3=severe. Changes in core body temperature, a measure of central activity, were recorded at the same timepoints using a rectal probe (Comark Electronic Thermometer Type 9001 )

[2] = Functional studies in vivo: salivation; parameters: species or system mouse (male CD1); settings: mouse, read-out: Salivation ED50 (dose inducing 50% of the maximum score)
Protocol: as §1, §2

[3] = biological target: muscarinic receptors ([^3 H]-OXO-M binding); assay: Inhibition of [^3 H]-oxotremorine-M ([^3 H]-OXO-M) binding, rat cerebral cortex; parameters: species or system rat (male Hooded Lister); settings: [^3 H]-OXO-M 1.88 nM, 37° C., geometric mean, n = 2
[4] = biological target: muscarinic receptors ([^3 H]-QNB binding); parameters: species or system rat (male Hooded Lister); settings: rat cerebral cortex; [^3 H]-QNB 0.27 nM; geometric mean; n = 2
[5] = Functional studies in vivo: hypothermia (core body temperature); parameters: species or system mouse (male CD1); settings: mouse, 95% CL on next line
Protocol: as §1, §2

**Q.** With `CO/N=C(\C#N)[C@H]1C[N+]2([O-])CCC1CC2` [Compound X, [R-(Z)]-α-(methoxyimino)-α-(1-azabicyclo[2.2.2]oct-3-yl)acetonitrile-1-oxide] as the molecule, how does the ED50 ([1]; oral) read?
**A.** > 30 mg/kg

**Q.** And the ED50 ([1]; sc, subcutaneous)?
**A.** > 30 mg/kg

**Q.** What about the ED50 ([2]; oral) of the same molecule?
**A.** < 0.3 mg/kg

**Q.** And the ED50 ([2]; sc, subcutaneous, 95% CL on next line)?
**A.** 2.38 mg/kg

**Q.** What about the IC50 [3] of the same molecule?
**A.** 2.86 µM

**Q.** What about the IC50 [4] of the same molecule?
**A.** 68.7 µM

**Q.** And the “Hypothermia ED3° (dose inducing 3° fall in core body temperature)” value ([5]; oral)?
**A.** 5.8 mg/kg

**Q.** What about the “Hypothermia ED3° (dose inducing 3° fall in core body temperature)” value ([5]; subcutaneous) of the same molecule?
**A.** 21.3 mg/kg
